Assay [1] concerns the target T1, delF508-CFTR-HRP (Homo sapiens, UniProt P13569, DEL508-508).
T1 construct: expressed in transfected cells
The experiment in a line: Measurement of delF508-CFTR-HRP surface expression in CFBE41o- cells (HRP luminescence).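 On DelF508-CFTR-HRP Amax %: percent efficacy relative to a reference CFTR corrector compound.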 In kind it is cell-based. As to conditions: for Emax: CFBE41o-, read-out: DelF508-CFTR-HRP Amax %; for EC50: mean of at least two replicates. An outline of the steps:
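EC50 derived by logistic regression of triplicate surface-HRP luminescence, plate-normalized to the lowest-concentration median. Doxycycline (500 ng/mL, 48 h) induced delF508-CFTR-HRP in CFBE41o- cells; compounds then applied 24 h at 37° C, 10 μM top, 3-fold over 10 points.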

Assay [2] concerns the target T2, delF508-CFTR (Homo sapiens, UniProt P13569, DEL508-508).
T2 construct: functional activity of the CFTR channel (Chloride ion transport) in patient derived primary human bronchial epithelial cells; host or cells: patient-derived primary human bronchial epithelial cells (HBECs), delF508-CFTR
As to the kind of experiment: delF508-CFTR functional activity in primary human bronchial epithelial cells (HBECs), Multi-Transepithelial Clamp Circuit (MTECC-24) assay, equivalent short circuit current. In kind it is cell-based. As to conditions: primary CF HBECs; for MTECC24 CFHBEC-Amax %: relative to reference combination 2 μM 3-(6-(1-(2,2-difluorobenzo[d][1,3]dioxol-5-yl)cyclopropane-1-carboxamido)-3-methylpyridin-2-yl)benzoic acid (24 h) + 0.5 μM N-(2,4-di-tert-butyl-5-hydroxyphenyl)-4-oxo-1,4-dihydroquinoline-3-carboxamide; for EC50: test compound added 24 h before assay, potentiator (S)-3-amino-6-methoxy-N-(3,3,3-trifluoro-2-hydroxy-2-methylpropyl)-5-(trifluoromethyl)picolinamide present at assay, mean of at least two replicates, read-out: MTECC24 CFHBEC-EC50. The text has this: Measurement of delF508-CFTR Functional Activity in Primary Human Bronchial Epithelial Cells (HBECs) Using Multi-Transepithelial Clamp Circuit (MTECC-24) Assay
This assay measures the functional activity of the CFTR channel (Chloride ion transport) in patient derived primary human bronchial epithelial cells with forskolin activation and in the presence of the CFTR corrector wherein the corrector is a compound of the invention and the potentiator is (S)-3-amino-6-methoxy-N-(3,3,3-trifluoro-2-hydroxy-2-methylpropyl)-5-(trifluoromethyl)picolinamide.
Primary human delF508-CFTR bronchial epithelial cells were purchased from Asterand and cultured according to previously established methods (Fulcher et al. (2005) Methods Mol Med 107: 183-206). Briefly, vendor supplied cells were rapidly defrosted and added to a T175 flask in 50 mL growth media (Lonza BEBM media with Lonza BEGM singlequots). Media was replaced after 24 h and then cells were fed every other day until cells were 80-90% confluent, at which point cells were cryopreserved. These P1 vials were thawed at 37° C. as needed and added to T175 flasks in 50 mL growth media at 5×10^5 cells/flask. Media was replaced after 24 h, and then cells were fed every other day until 80-90% confluent. Cells were lifted with 5 mL Accutase at 37° C. for 5 minutes, centrifuged at 1000 rpms for 5 min (300 g), and resuspended in differentiation media (50% BEBM in DMEM, BEGM singlequots, all trans retinoic acid (5×10·8M)). Cells were then counted and cell suspension was added to collagen coated inserts at 3×10^4 cells/insert in 0.15 mL with 0.5 mL differentiation media on the basolateral side.
Apical and basolateral media were replaced on alternate days, and following day 7 (or when confluent plus 2 days), air liquid interface was established for approximately two weeks by removal of apical media. One day prior to use on the MTECC24 system (EP-Devices, EP Design, Belgium), 0.15 mL of warmed (37° C.) PBS was added to the apical surface of the cultures and returned to humidifier (37° C., 5% CO2 incubator) for 30 min before aspirating the apical surface to remove any mucus.
Compound treatments were then prepared. Compound dilutions, typically a 10 point concentration response with 1 in 3 dilution steps, were made in 100% DMSO before dilution 1 in 1000 into differentiation medium with a final DMSO concentration of 0.1% or 0.2% for the study. Compound containing medium was then transferred into the wells of a 24 well plate at 0.5 mL per well and warmed for 30 min in a 37° C. incubator prior to transferring washed inserts into the compound containing plates. Cells were incubated in compound containing medium (basolateral only) for 24 h prior to measurement in the MTECC24 system.
Following 24 hr treatment, compound dilutions were prepared again, diluted 1 in 1000 into 37° C. assay medium (F-12 Coon's modified, 20 mM HEPES pH7.4 with TRIS Base, No FCS or bicarbonate). Cells which were treated for 24 h with test compound were then transferred into plates containing 0.75 mL compound treatment in assay medium (basolateral) and 0.25 mL of the compound containing assay medium was added to the apical surface. The plates were then transferred to the heated plate compartments of the MTECC24 system for 45 min prior to measurements (this can also be done in a non-CO2 37° C. humidified incubator). Basolateral temperature should not exceed 36.5° C. and apical temperature should be approximately 35.5° C.
Modulators were added sequentially as follows while the MTECC24 instrument recorded the equivalent short circuit current (Ieq)
Prior to dilution into F-12 medium the stocks are as follows: Amiloride stock is 10 mM in H2O
Forskolin Stock is 10 mM in 100% DMSO
(S)-3-amino-6-methoxy-N-(3,3,3-trifluoro-2-hydroxy-2-methylpropyl)-5-(trifluoromethyl)picolinamide is 0.5 mM stock in 100% DMSO INH-172 (4-[[4-Oxo-2-thioxo-3-[3-trifluoromethyl)phenyl]-5-thiazolidinylidene]methyl]benzoic acid) stock is 30 mM in 100% DMSO […]

T2 sequence (P13569 with tags, fused parts or gaps DEL508-508): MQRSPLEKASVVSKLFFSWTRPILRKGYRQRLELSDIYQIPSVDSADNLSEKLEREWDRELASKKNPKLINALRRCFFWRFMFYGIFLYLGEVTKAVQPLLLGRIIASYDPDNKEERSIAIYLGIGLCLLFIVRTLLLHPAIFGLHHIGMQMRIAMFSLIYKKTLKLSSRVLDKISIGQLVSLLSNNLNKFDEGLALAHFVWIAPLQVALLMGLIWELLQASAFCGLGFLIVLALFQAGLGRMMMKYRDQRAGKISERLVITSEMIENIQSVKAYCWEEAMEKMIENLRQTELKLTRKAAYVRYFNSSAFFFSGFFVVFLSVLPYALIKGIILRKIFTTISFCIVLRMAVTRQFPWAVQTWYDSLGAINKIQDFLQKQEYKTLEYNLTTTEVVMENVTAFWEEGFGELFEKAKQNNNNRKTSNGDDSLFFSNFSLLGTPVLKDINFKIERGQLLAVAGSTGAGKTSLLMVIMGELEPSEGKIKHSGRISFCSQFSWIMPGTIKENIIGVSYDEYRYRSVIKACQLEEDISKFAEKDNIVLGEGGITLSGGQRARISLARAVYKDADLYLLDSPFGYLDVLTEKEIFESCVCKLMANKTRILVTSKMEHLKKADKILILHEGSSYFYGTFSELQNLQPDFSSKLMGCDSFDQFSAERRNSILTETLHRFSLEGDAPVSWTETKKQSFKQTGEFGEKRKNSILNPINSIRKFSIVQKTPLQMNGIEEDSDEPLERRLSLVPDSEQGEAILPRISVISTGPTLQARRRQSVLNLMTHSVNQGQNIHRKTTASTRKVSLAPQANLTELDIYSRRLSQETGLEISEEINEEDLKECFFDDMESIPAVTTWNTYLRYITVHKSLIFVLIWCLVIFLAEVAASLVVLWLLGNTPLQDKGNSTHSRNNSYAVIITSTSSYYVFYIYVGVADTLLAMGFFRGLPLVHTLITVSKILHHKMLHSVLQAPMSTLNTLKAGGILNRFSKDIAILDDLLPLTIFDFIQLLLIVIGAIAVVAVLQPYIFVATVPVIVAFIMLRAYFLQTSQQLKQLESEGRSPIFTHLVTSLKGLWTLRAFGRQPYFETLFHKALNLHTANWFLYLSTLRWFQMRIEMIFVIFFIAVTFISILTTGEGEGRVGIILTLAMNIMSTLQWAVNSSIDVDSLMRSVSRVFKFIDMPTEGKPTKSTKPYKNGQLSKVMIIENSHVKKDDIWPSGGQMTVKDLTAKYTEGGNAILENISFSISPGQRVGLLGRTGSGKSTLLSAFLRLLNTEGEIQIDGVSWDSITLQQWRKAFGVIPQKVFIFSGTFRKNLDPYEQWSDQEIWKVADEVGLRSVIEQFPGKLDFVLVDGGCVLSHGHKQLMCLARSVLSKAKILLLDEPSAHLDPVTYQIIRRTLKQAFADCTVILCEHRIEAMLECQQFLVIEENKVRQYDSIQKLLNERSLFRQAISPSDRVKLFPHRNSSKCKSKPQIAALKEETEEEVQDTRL
T1 sequence (P13569 with tags, fused parts or gaps DEL508-508): as above

In general, EC50 refers to the midpoint of the concentration-response curve. As for `Cc1ccc(C2CCCCC2)c(OC2(C(=O)NS(=O)(=O)c3cccc(N4CCN(c5ccc(F)cc5)CC4)n3)CC2)c1` [Example 2-55, 1-(2-Cyclohexyl-5-methylphenoxy)-N-((6-(4-(4-fluorophenyl)piperazin-1-yl)pyridin-2-yl)sulfonyl)cyclopropane-1-carboxamide], in assay [1], the Emax turned out to be 512% and the EC50 is 0.64 µM. For the same molecule, in assay [2], the “MTECC24 CFHBEC-Amax %” value was 91% and the EC50 was found to be 0.013 µM.
The like results for `O=C(NS(=O)(=O)c1cccc(N2CC[C@H](O)C2)n1)C1(Oc2cc(Cl)ccc2N2CCC3(CCCC3)CC2)CC1` [Example 9-13, (S)-1-(5-Chloro-2-(8-azaspiro[4.5]decan-8-yl)phenoxy)-N-((6-(3-hydroxypyrrolidin-1-yl)pyridin-2-yl)sulfonyl)cyclopropanecarboxamide] were, in that order, 638%, 1.04 µM, 128.4% and 0.171 µM.
Turning to `Cc1ccc(C2CCCCC2)c(OC2(C(=O)NS(=O)(=O)c3cccc(N4CCC(C)(C#N)CC4)n3)CC2)c1` [Example 2-15, N-((6-(4-cyano-4-methylpiperidin-1-yl)pyridin-2-yl)sulfonyl)-1-(2-cyclohexyl-5-methylphenoxy)cyclopropanecarboxamide], in assay [1], the Emax is 284% and the EC50 turned out to be 0.94 µM. In assay [2], the “MTECC24 CFHBEC-Amax %” value is given as 101% and the EC50 is 0.003 µM.
Regarding `Cc1ccc(C2CCCCC2)c(OC2(C(=O)NS(=O)(=O)c3cccc(N4CCNC(=O)CC4)n3)CC2)c1` [Example 2-40, 1-(2-Cyclohexyl-5-methylphenoxy)-N-((6-(5-oxo-1,4-diazepan-1-yl)pyridin-2-yl)sulfonyl)cyclopropanecarboxamide], in assay [1], the Emax was 123% and a half-maximal response (EC50) required 3.79 µM. Moreover, in assay [2], the “MTECC24 CFHBEC-Amax %” value was 76% and the EC50 stood at 0.121 µM.
`O=C(NS(=O)(=O)c1cccc(N2CC(O)C2)n1)C1(Oc2cc(Cl)ccc2C2CC3(CCC3)C2)CC1` [Example 7-9, 1-(5-Chloro-2-(spiro[3.3]heptan-2-yl)phenoxy)-N-((6-(3-hydroxyazetidin-1-yl)pyridin-2-yl)sulfonyl)cyclopropane-1-carboxamide]: in assay [1], the Emax was 300% and the EC50 was 2.05 µM. In addition, in assay [2], the “MTECC24 CFHBEC-Amax %” value stood at 120.3% and the EC50 was 0.345 µM.
For `O=C(NS(=O)(=O)c1cccc(N2CC[C@H](O)C2)n1)C1(Oc2cc(Cl)ccc2N2CC3(CCC3)C2)CC1` [Example 9-20, (S)-1-(5-Chloro-2-(2-azaspiro[3.3]heptan-2-yl)phenoxy)-N-((6-(3-hydroxypyrrolidin-1-yl)pyridin-2-yl)sulfonyl)cyclopropanecarboxamide] the same measures were 729%, 2.91 µM, 98.5% and 0.832 µM.
For `Cc1ccc(C2CCCCC2)c(OC2(C(=O)NS(=O)(=O)c3cccc(N4CCC(C)(NC(=O)OC(C)(C)C)C4)n3)CC2)c1` (centres unmarked) [Example 2-24, Tert-butyl (1-(6-(N-(1-(2-cyclohexyl-5-methylphenoxy)cyclopropanecarbonyl)sulfamoyl)pyridin-2-yl)-3-methylpyrrollidin-3-yl)carbamate] the same measures were 591%, 1.27 µM, 62% and 0.005 µM.
`Cc1ccc(OC2CCC(C(C)(C)C)CC2)c(OC2(C(=O)NS(=O)(=O)c3cccc(N4CCC(C)(O)CC4)n3)CC2)c1` (centres unmarked) [Example 6-5, 1-(2-((4-(tert-butyl)cyclohexyl)oxy)-5-methylphenoxy)-N-((6-(4-hydroxy-4-methylpiperidin-1-yl)pyridin-2-yl)sulfonyl)cyclopropanecarboxamide]: in assay [1], the Emax amounted to 519% and the EC50 worked out at 0.37 µM.
For `CC1(C)CCCN(c2ccc(Cl)cc2OC2(C(=O)NS(=O)(=O)c3cccc(N4CC[C@](C)(O)C4)n3)CC2)C1` [Example 9-27, (S)-1-(5-Chloro-2-(3,3-dimethylpiperidin-1-yl)phenoxy)-N-((6-(3-hydroxy-3-methylpyrrolidin-1-yl)pyridin-2-yl)sulfonyl)cyclopropanecarboxamide] the same measures were 857% and 0.61 µM.
`CC(C)(C)C1CCC(Nc2ccc(Cl)cc2OC2(C(=O)NS(=O)(=O)c3cccc(N4CC[C@H](O)C4)n3)CC2)CC1` (single isomer, unassigned) [Example 9-5-1]: in assay [1], the “DelF508-CFTR-HRP Amax %” value was 93.6% and it took 0.96 µM to reach a half-maximal effect (EC50).
`CC1(C)CCN(c2ccc(Cl)cc2OC2(C(=O)NS(=O)(=O)c3cccc(N4CCN5C(=O)CCC5C4)n3)CC2)CC1` (centres unmarked) [Example 10-10, 1-(8-chloro-2-(4,4-dimethylpiperidin-1-yl)phenoxy)-N-((6-(6-oxohexahydropyrrolo[1,2-a]pyrazin-2(1H)-yl)pyridin-2-yl)sulfonyl)cyclopropanecarboxamide]: in assay [1], the Emax turned out to be 210% and the EC50 was 2.62 µM.
The like results for `CC1(C)CCCN(c2ccc(Cl)cc2OC2(C(=O)NS(=O)(=O)c3cccc(N4CC[C@@](C)(O)C4)n3)CC2)C1` [Example 9-30, (R)-1-(5-Chloro-2-(3,3-dimethylpiperidin-1-yl)phenoxy)-N-((6-(3-hydroxy-3-methylpyrrolidin-1-yl)pyridin-2-yl)sulfonyl)cyclopropanecarboxamide] were, in that order, 590% and 0.59 µM.
Take `O=C(NS(=O)(=O)c1cccc(N2CC[C@H](O)C2)n1)C1(Oc2cc(Cl)ccc2-c2ccc(F)c(C(F)(F)F)c2)CC1` [Example 5-7]: in assay [1], the Emax stood at 279% and the midpoint of the response, the EC50, lay at 1.38 µM.
As for `CC1(C)CCN(c2ccc(Cl)cc2OC2(C(=O)NS(=O)(=O)c3cccc(N4CC[C@](C)(O)C4)n3)CC2)CC1` [Example 10-1, (S)-1-(5-chloro-2-(4,4-dimethylpiperidin-1-yl)phenoxy)-N-((6-(3-hydroxy-3-methylpyrrolidin-1-yl)pyridin-2-yl)sulfonyl)cyclopropanecarboxamide], in assay [1], the Emax stood at 547% and the EC50 is 0.53 µM.
For `Cc1ccc(C2CCCCC2)c(OC2(C(=O)NS(=O)(=O)c3cccc(N4CCCC(N)C4)n3)CC2)c1` (centres unmarked) [Example 2-13, N-((6-(3-Aminopiperidin-1-yl)pyridin-2-yl)sulfonyl)-1-(2-cyclohexyl-5-methylphenoxy)cyclopropanecarboxamide] the same measures were 119% and 4.61 µM.

The values are drawn from US20220033407A1, “N-(pyridin-2-ylsulfonyl)cyclopropanecarboxamide Derivatives and their Use in the Treatment of Disease” (NOVARTIS AG, priority 2018, published 2022).
